Like-named read-outs stand apart in the source and are kept apart here.
Assays:
[1] = tested on: HCV replicon (BB7 sequence) in Huh-7-Clone A cells; test: HCV replicon assay: ELISA of NS5A protein in replicon-containing cells (Inhibition of Viral RNA Replication); format: cell-based; conditions: read-out: Replicon
In short: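 Huh-7-Clone A cells carrying subgenomic BB7 HCV replicon (G418-selectable) incubated 72 h with compound. NS5A protein quantified by cell ELISA: glutaraldehyde fixation, anti-NS5A monoclonal plus HRP secondary, TMB read at OD 650 nm. EC50 derived from 8-point serial dilution dose curve.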

[2] = target: T1, HCV NS5B (Hepatitis C virus genotype 1b, UniProt Q9WMX2); test: Inhibition of viral RNA-dependent RNA polymerase (RdRp), in vitro biochemical assay; set-up: species or system HCV genotype 1b virus (BB7); conditions: HCV NS5B RdRp, read-out: HCV pol-BB7 IC50
T1 construct: fusion protein, of which the carboxyl terminal 21 amino acids were removed to enhance its solubility; His tag (GSHHHHHH); made in house; host or cells: E. coli
In short: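 Purified recombinant NS5B from a genotype 1b consensus (BB7), His-tagged, E. coli-expressed, with the C-terminal 21 residues deleted. Inhibition of RdRp activity in vitro was measured, and IC50 is the concentration giving 50% inhibition.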

[3] = Hepatitis C virus, ranges of EC50 in HCV replicon assay
[4] = Hepatitis C virus, HCV replicon, range of EC50

SMILES | EC50 [1, 3] [µM] | IC50 ([2]; BB7 genotype 1b) [µM] | EC50 [1, 4] [µM] | IC50 ([2]; BB7, reported as range class) [µM] | EC50 ([1]; HCV replicon, range of EC50) [µM]
CNC(=O)c1c(-c2ccc(F)cc2)oc2cc(CNS(C)(=O)=O)c(OC(C)C)cc12 [Example 162, 2-(4-Fluoro-phenyl)-5-isopropoxy-6-(methanesulfonylamino-methyl)-benzofuran-3-carboxylic acid methylamide] | < 10 | 0.5 to 5 | – | – | –
CNC(=O)c1c(-c2ccc(F)cc2)oc2cc(N(C3CCCC3)S(C)(=O)=O)c(OC(C)C)cc12 [Example 163, 6-(Cyclopentyl-methanesulfonyl-amino)-2-(4-fluoro-phenyl)-5-isopropoxy-benzofuran-3-carboxylic acid methylamide] | < 1 | ≤ 0.5 | – | – | –
CNC(=O)c1c(-c2ccc(F)cc2)oc2cc(N(CCO)S(C)(=O)=O)c(OC(C)C)cc12 [Example 164, 2-(4-Fluoro-phenyl)-6-[(2-hydroxy-ethyl)-methanesulfonyl-amino]-5-isopropoxy-benzofuran-3-carboxylic acid methylamide] | < 10 | ≤ 0.5 | – | – | –
CNC(=O)c1c(-c2ccc(F)cc2)oc2cc(OC)c(O)cc12 [Example 165, 2-(4-Fluoro-phenyl)-5-hydroxy-6-methoxy-benzofuran-3-carboxylic acid methylamide] | > 30 | 5 to 30 | – | – | –
CCOc1cc2c(C(=O)NC)c(-c3ccc(F)cc3)oc2cc1N1CCOCC1 [Example 166, 5-Ethoxy-2-(4-fluoro-phenyl)-6-morpholin-4-yl-benzofuran-3-carboxylic acid methylamide] | < 10 | 0.5 to 5 | – | – | –
CNC(=O)c1c(-c2ccc(F)cc2)oc2cc(N3CCOCC3)c(OCc3ccc(F)cc3)cc12 [Example 167, 5-(4-Fluoro-benzyloxy)-2-(4-fluoro-phenyl)-6-morpholin-4-yl-benzofuran-3-carboxylic acid methylamide] | < 1 | 0.5 to 5 | – | – | –
CNC(=O)c1c(-c2ccc(F)cc2)oc2cc(-c3cnco3)c(OC(C)C)cc12 [Example 168, 2-(4-Fluoro-phenyl)-5-isopropoxy-6-oxazol-5-yl-benzofuran-3-carboxylic acid methylamide] | < 10 | ≤ 0.5 | – | – | –
CNC(=O)c1c(-c2ccc(F)cc2)oc2cc(S(=O)(=O)N3CCC(O)CC3)c(OC(C)C)cc12 [Example 169, 2-(4-Fluoro-phenyl)-6-(4-hydroxy-piperidine-1-sulfonyl)-5-isopropoxy-benzofuran-3-carboxylic acid methylamide] | < 1 | ≤ 0.5 | – | – | –
CNC(=O)c1c(-c2ccc(F)cc2)oc2cc(N3CCC(F)(F)CC3)c(OC(C)C)cc12 [Example 170, 6-(4,4-Difluoro-piperidin-1-yl)-2-(4-fluoro-phenyl)-5-isopropoxy-benzofuran-3-carboxylic acid methylamide] | < 1 | 5 to 30 | – | – | –
CNC(=O)c1c(-c2ccc(F)cc2)oc2cc(N3CCC(F)CC3)c(OC(C)C)cc12 [Example 171, 2-(4-Fluoro-phenyl)-6-(4-fluoro-piperidin-1-yl)-5-isopropoxy-benzofuran-3-carboxylic acid methylamide] | < 1 | 0.5 to 5 | – | – | –
CNC(=O)c1c(-c2ccc(F)cc2)oc2cc(N3CCOCC3)c(OC(F)F)cc12 [Example 172, 5-Difluoromethoxy-2-(4-fluoro-phenyl)-6-morpholin-4-yl-benzofuran-3-carboxylic acid methyalmide] | – | – | < 1 | ≤ 0.5 | –
CNC(=O)c1c(-c2ccc(F)cc2)oc2cc(N3CCOCC3)c(OC3CCCC3)cc12 [Example 173, 5-Cyclopentyloxy-2-(4-fluoro-phenyl)-6-morpholin-4-yl-benzofuran-3-carboxylic acid mehtylamide] | – | – | < 1 | ≤ 0.5 | –
CNC(=O)c1c(-c2ccc(F)cc2)oc2cc(NS(C)(=O)=O)c(O)cc12 [Example 174, 2-(4-Fluoro-phenyl)-5-hydroxy-6-methanesulfonylamino-benzofuran-3-carboxylic acid methylamide] | – | – | < 30 | 0.5 to 5 | –
CNC(=O)c1c(-c2ccc(F)cc2)oc2cc(S(=O)(=O)N3CCSCC3)c(OC(C)C)cc12 [Example 175, 2-(4-Fluoro-phenyl)-5-isopropoxy-6-(thiomorpholine-4-sulfonyl)-benzofuran-3-carboxylic acid methylamide] | – | – | < 1 | ≤ 0.5 | –
CNC(=O)c1c(-c2ccc(F)cc2)oc2cc(S(=O)(=O)N3CCC(O)C3)c(OC(C)C)cc12 (stereo not drawn) [Example 176, 2-(4-Fluoro-phenyl)-6-(3-hydroxy-pyrrolidine-1-sulfonyl)-5-isopropoxy-benzofuran-3-carboxylic acid methylamide] | – | – | < 1 | ≤ 0.5 | –
CNC(=O)c1c(-c2ccc(F)cc2)oc2cc(-c3ccncc3)c(OC(C)C)cc12 [Example 177, 2-(4-Fluoro-phenyl)-5-isopropoxy-6-pyridin-4-yl-benzofuran-3-carboxylic acid methylamide] | – | – | < 10 | ≤ 0.5 | –
CNC(=O)c1c(-c2ccc(F)cc2)oc2cc(-c3cccc(S(C)(=O)=O)c3)c(OC(C)C)cc12 [Example 178, 2-(4-Fluoro-phenyl)-5-isopropoxy-6-(3-methanesulfonyl-phenyl)-benzofuran-3-carboxylic acid methylamide] | – | – | < 10 | ≤ 0.5 | –
CNC(=O)c1c(-c2ccc(F)cc2)oc2cc(-c3ccc(S(C)(=O)=O)cc3)c(OC(C)C)cc12 [Example 179, 2-(4-Fluoro-phenyl)-5-isopropoxy-6-(4-methanesulfonyl-phenyl)-benzofuran-3-carboxylic acid methylamide] | – | – | < 10 | ≤ 0.5 | –
CNC(=O)c1c(-c2ccc(F)cc2)oc2cc(N3CCOCC3)c(OCCCl)cc12 [Example 180, 5-(2-Chloro-ethoxy)-2-(4-fluoro-phenyl)-6-morpholin-4-yl-benzofuran-3-carboxylic acid methylamide] | – | – | > 30 | ≤ 0.5 | –
CNC(=O)c1c(-c2ccc(F)cc2)oc2cc(OCc3ccccc3)c(OC)cc12 [Example 181, 6-Benzyloxy-2-(4-fluoro-phenyl)-5-methoxy-benzofuran-3-carboxylic acid methylamide] | – | – | < 10 | ≤ 0.5 | –
CNC(=O)c1c(-c2ccc(F)cc2)oc2cc(N)c(O)cc12 [Example 182, 6-Ainino-2-(4-fluoro-phenyl)-5-hydroxy-benzofuran-3-carboxylic acid methylamide] | – | – | < 30 | 0.5 to 5 | –
CNC(=O)c1c(-c2ccc(F)cc2)oc2cc(OCc3ccccc3)c(OCc3ccccc3)cc12 [Example 183, 5,6-Bis-benzyloxy-2-(4-fluoro-phenyl)-benzofuran-3-carboxylic acid methylamide] | – | – | < 10 | > 30 | –
CNC(=O)c1c(-c2ccc(F)cc2)oc2cc(-c3noc(C(F)(F)F)n3)c(OC(C)C)cc12 [Example 184, 2-(4-Fluoro-phenyl)-5-isopropoxy-6-(5-trifluoromethyl-[1,2,4]oxadiazol-3-yl)-benzofuran-3-carboxylic acid methylamide] | – | – | < 30 | 0.5 to 5 | –
CNC(=O)c1c(-c2ccc(F)cc2)oc2cc(N3CCN(C(N)=O)CC3)c(OC(C)C)cc12 [Example 185, [2-(4-Fluoro-phenyl)-5-isopropoxy-3-methylcarbamoyl-benzofuran-6-yl]-piperazine-1-carboxylic acid amide] | – | – | – | 5 to 30 | < 10
